Here are results for eleven compounds from ChEMBL document CHEMBL1201862, “PubChem BioAssay data set” (2004).

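48-hour exposure; five concentrations; linearly interpolated endpoints. GI50 = concentration required for 50% inhibition of growth.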 Active and inactive are the calls of the source. No stated cut-off is given here; in the data, active = GI50 up to about 1.1 µM and inactive = higher.

Among the test systems are ACHN; CAKI-1; COLO 205; DU-145; HCT-15; HT-29; IGROV-1; KM12; MDA-MB-435; MOLT-4; NCI-H226; NCI-H23; OVCAR-3; SK-MEL-28; SK-OV-3; T47D; U-251; UACC-257; UACC-62; HCC 2998.
What all share (assay): inhibition of tumour cell growth, NCI panel, 48 h

`CCN(CC)CCNc1ccc([N+](=O)[O-])c2nc3ccc(OC)cc3c(N)c12`: the GI50 with ACHN was 1.43 µM (inactive); in the assay with CAKI-1 it was 1.89 µM (inactive); in the assay on COLO 205, 0.4 µM (active); in the assay with DU-145, 1.65 µM (inactive); with HCT-15, 1.27 µM; with HT-29, 0.394 µM (active). For the same compound, the GI50 with IGROV-1 is 0.435 µM (active); in the assay with KM12 it was 1.12 µM (inactive); in the assay with MDA-MB-435 it was 1.45 µM (inactive); with MOLT-4 it was 0.301 µM (active); with NCI-H226, 2.32 µM (inactive); in the assay on NCI-H23 it was 1.64 µM (inactive). Besides, the GI50 in the assay on OVCAR-3 was 1.86 µM (inactive); with SK-MEL-28, 1.65 µM (inactive); in the assay on SK-OV-3 it was 1.89 µM (inactive); in the assay on T47D, 1.26 µM (inactive); in the assay on U-251, 1.62 µM (inactive); in the assay on UACC-257 it was 1.77 µM (inactive). The GI50 in the assay on UACC-62 was 1.7 µM (inactive).

As for `Cn1c(=O)c2ccccc2[n+]2c(-c3cccc([N+](=O)[O-])c3)csc12`, the GI50 was > 100 µM (inactive) with ACHN; 73.5 µM (inactive) in the assay with CAKI-1; > 100 µM (inactive) in the assay on COLO 205; > 100 µM (inactive) in the assay on DU-145; > 100 µM (inactive) in the assay with HCC 2998; 41.3 µM (inactive) in the assay on HT-29. Further, the GI50 with IGROV-1 is 68.1 µM (inactive); in the assay on KM12, 58.2 µM (inactive); in the assay with MDA-MB-435 it was 63.7 µM (inactive); in the assay on MOLT-4, 24.2 µM (inactive); with NCI-H226, > 100 µM (inactive); in the assay with NCI-H23, > 100 µM (inactive). Moreover, the GI50 with OVCAR-3 is 39.4 µM (inactive); in the assay on SK-MEL-28, > 100 µM (inactive); in the assay on SK-OV-3, 73.6 µM (inactive); with T47D it was > 100 µM (inactive); with U-251, 32.6 µM (inactive); with UACC-257, > 100 µM (inactive). The GI50 in the assay with UACC-62 is 70.3 µM (inactive).

As to `COc1ccc(S(=O)(=O)N2C(=O)CCC2C(=O)NC(N)=O)cc1` (centres undefined), the GI50 with ACHN was > 100 µM (inactive); in the assay on CAKI-1 it was > 100 µM (inactive); in the assay with COLO 205 it was > 100 µM (inactive); in the assay with DU-145 it was > 100 µM (inactive); with HCT-15, over 100 µM; in the assay on HT-29 it was > 100 µM (inactive). The GI50 with IGROV-1, in the assay on KM12, in the assay on MDA-MB-435, in the assay with MOLT-4, with NCI-H226 and with NCI-H23 was > 100 µM (inactive) in each case. The GI50 in the assay with OVCAR-3, in the assay on SK-MEL-28, in the assay on SK-OV-3, in the assay with T47D, in the assay on U-251 and in the assay on UACC-257 was > 100 µM (inactive) throughout. The GI50 in the assay on UACC-62 is > 100 µM (inactive).

For the compound `C1CNOCCCONCCCNOCCCONC1`, the GI50 with ACHN is > 100 µM (inactive); in the assay on CAKI-1, > 100 µM (inactive); in the assay with COLO 205, > 100 µM (inactive); with DU-145, 58.9 µM (inactive); in the assay with HCT-15, over 100 µM; in the assay with HT-29 it was > 100 µM (inactive). The GI50 is 56.1 µM (inactive) in the assay with IGROV-1; > 100 µM (inactive) in the assay on KM12; > 100 µM (inactive) in the assay on MDA-MB-435; > 100 µM (inactive) in the assay on MOLT-4; > 100 µM (inactive) with NCI-H226; > 100 µM (inactive) with NCI-H23. For the same compound, the GI50 was 62.2 µM (inactive) in the assay on OVCAR-3; > 100 µM (inactive) with SK-MEL-28; 37.1 µM (inactive) in the assay with SK-OV-3; 11.3 µM (inactive) with T47D; 31.7 µM (inactive) in the assay with U-251; 41.7 µM (inactive) with UACC-257. The GI50 in the assay on UACC-62 is > 100 µM (inactive).

For the compound `Oc1cc(O)c2c(c1)O[C@H](c1cc(O)c(O)c(O)c1)[C@@H](O)C2` [GALLOCATECHIN], the GI50 in the assay on ACHN is 21.1 µM (inactive); with CAKI-1, 43.7 µM (inactive); with COLO 205, 19.3 µM (inactive); in the assay on DU-145, > 100 µM (inactive); in the assay with HCC 2998, > 10 µM (inactive); in the assay with HCT-15, 40 µM. For the same compound, the GI50 in the assay on IGROV-1 is 18.8 µM (inactive); in the assay with MDA-MB-435, 18.5 µM (inactive); with MOLT-4, > 10 µM (inactive); in the assay on NCI-H226 it was 28.8 µM (inactive); with NCI-H23 it was 23.5 µM (inactive); with OVCAR-3 it was 21.8 µM (inactive). Further, the GI50 with SK-MEL-28 was 43.3 µM (inactive); in the assay on SK-OV-3 it was 28.1 µM (inactive); in the assay with T47D it was 28.9 µM (inactive); with U-251 it was 19.7 µM (inactive); in the assay with UACC-257, > 100 µM (inactive).

As for `CCC(C)SC1SCC2C(=O)N(C)C3(CC3C)C(=O)OCC(NC(=O)c3nc4ccccc4cc3O)C(=O)NC(C)C(=O)N(C)C1C(=O)N(C)C1(CC1C)C(=O)OCC(NC(=O)c1nc3ccccc3cc1O)C(=O)NC(C)C(=O)N2C` (centres undefined), the GI50 was 0.01 µM (active) in the assay with CAKI-1; 5.01e-05 µM (active) in the assay with COLO 205; 0.000188 µM (active) in the assay on DU-145; 0.000103 µM (active) with HCC 2998; 0.00204 µM with HCT-15; 0.000137 µM (active) in the assay on IGROV-1. Further, the GI50 in the assay on MDA-MB-435 is 4.97e-05 µM (active); with MOLT-4, 0.000128 µM (active); in the assay with NCI-H226 it was 4.99e-05 µM (active); in the assay on NCI-H23 it was 3.25e-05 µM (active); with SK-OV-3, 0.000144 µM (active); with T47D, 0.000219 µM (active). The GI50 in the assay with U-251 was 3.18e-05 µM (active); in the assay on UACC-257, 5.3e-05 µM (active); in the assay on UACC-62, 1.55e-05 µM (active).

With `OC1OC(c2ccc[nH]2)C(F)(F)C(F)(F)C1(F)F` (centres undefined), the GI50 with ACHN was > 100 µM (inactive); with CAKI-1, 87.3 µM (inactive); in the assay with COLO 205 it was 26.7 µM (inactive); in the assay with DU-145, > 100 µM (inactive); with HCT-15, over 100 µM; with HT-29 it was > 100 µM (inactive). Besides, the GI50 with IGROV-1, in the assay on KM12, in the assay with MDA-MB-435, in the assay with MOLT-4, in the assay on NCI-H226 and in the assay on OVCAR-3 was > 100 µM (inactive) each time. Also, the GI50 with SK-MEL-28, with SK-OV-3, in the assay with T47D, in the assay on U-251, with UACC-257 and with UACC-62 was > 100 µM (inactive) in each case.

For the compound `CCOC(=O)C1(N)CC1`, the GI50 was > 100 µM (inactive) with ACHN; > 100 µM (inactive) with CAKI-1; > 100 µM (inactive) with DU-145; > 100 µM (inactive) in the assay on HCC 2998; over 100 µM with HCT-15; > 100 µM (inactive) in the assay with HT-29. Further, the GI50 in the assay on IGROV-1, in the assay on KM12, in the assay on MDA-MB-435, in the assay with MOLT-4, in the assay with NCI-H226 and in the assay with NCI-H23 was > 100 µM (inactive) in each case. The GI50 was > 100 µM (inactive) in the assay on OVCAR-3; > 100 µM (inactive) in the assay on SK-MEL-28; 56.8 µM (inactive) in the assay with T47D; > 100 µM (inactive) in the assay with U-251; > 100 µM (inactive) in the assay with UACC-257.

`COc1ccc(/C=C2/NC(=S)N=C2Cl)cc1`: the GI50 with ACHN is > 100 µM (inactive); with CAKI-1 it was > 100 µM (inactive); in the assay on COLO 205, > 100 µM (inactive); with DU-145 it was > 100 µM (inactive); in the assay with HCT-15, over 100 µM; with HT-29, > 100 µM (inactive). For the same compound, the GI50 with IGROV-1 is > 100 µM (inactive); in the assay with KM12, 58.3 µM (inactive); with MDA-MB-435 it was > 100 µM (inactive); with MOLT-4 it was > 100 µM (inactive); with NCI-H226 it was > 100 µM (inactive); with NCI-H23, > 100 µM (inactive). The GI50 in the assay on OVCAR-3, with SK-MEL-28, with SK-OV-3, with T47D, in the assay on U-251 and in the assay with UACC-257 was > 100 µM (inactive) in each case.

Turning to `CN(C)CCNS(=O)(=O)N(C)C`, the GI50 in the assay on ACHN was > 100 µM (inactive); with CAKI-1 it was > 100 µM (inactive); in the assay on COLO 205, > 100 µM (inactive); in the assay on DU-145, > 100 µM (inactive); in the assay with HCT-15 it was over 100 µM; in the assay with HT-29 it was > 100 µM (inactive). Further, the GI50 in the assay on IGROV-1, with KM12, in the assay with MDA-MB-435, in the assay on MOLT-4, with NCI-H226 and with NCI-H23 was > 100 µM (inactive) in each case. Moreover, the GI50 with OVCAR-3, with SK-MEL-28, in the assay on SK-OV-3, in the assay with T47D, in the assay on U-251 and with UACC-257 was > 100 µM (inactive) in each case. Besides, in the assay with UACC-62, the GI50 was > 100 µM (inactive).

Consider `O=C(O)CS(=O)(=O)C(c1ccccc1)c1ccccc1`, for which the GI50 is > 100 µM (inactive) in the assay with ACHN; > 100 µM (inactive) in the assay on CAKI-1; > 100 µM (inactive) in the assay on COLO 205; > 100 µM (inactive) in the assay with DU-145; over 100 µM in the assay on HCT-15; > 100 µM (inactive) in the assay on HT-29. Moreover, the GI50 with IGROV-1, with KM12, with MDA-MB-435, with MOLT-4, with NCI-H226 and with NCI-H23 was > 100 µM (inactive) throughout. In addition, the GI50 with OVCAR-3, in the assay with SK-MEL-28, in the assay on SK-OV-3, in the assay on T47D, in the assay with U-251 and with UACC-257 was > 100 µM (inactive) each time. In addition, in the assay with UACC-62, the GI50 was > 100 µM (inactive).
